Patent publication US20130345199A1, “1-[M-CARBOXAMIDO(HETERO)ARYL-METHYL]-PIPERIDINE-4-CARBOXAMIDE DERIVATIVES” (Actelion Pharmaceuticals Ltd., priority 2012, published 2013)

Target: T1, CXCR7 (Homo sapiens, UniProt P25106)
T1 construct: host or cells: CHO-K1 (PathHunter CXCR7 b-arrestin cell line, stably transfected)
Assay: PathHunter CHO-K1 CXCR7 b-arrestin assay (agonistic activity)
Assay type: cell-based
Conditions: PathHunter CHO-K1 CXCR7 b-arrestin cell line, 90 minutes at 37° C.
Procedure: The […] receptor and CXCR7 agonistic activities of the compounds of formula (I) are determined in accordance with the following experimental method.
The assay is using the PathHunter™ CHO-K1 CXCR7 b-arrestin cell line from DiscoverX. The system is based on the Enzyme Fragment Complementation Technology. Two complementing fragments of the b-galactosidase enzyme are expressed within stably transfected cells. The larger portion of b-gal, termed EA for Enzyme Acceptor, is fused to the C-terminus of b-arrestin 2. The smaller fragment, termed ProLink™ tag, is fused to CXCR7 at the C-terminus. Upon activation, b-arrestin is recruited which forces the interaction of ProLink and EA, allowing complementation of the two fragments of b-gal and the formation of a functional enzyme which is capable of hydrolysing the substrate and generating a chemiluminescent signal.
CHO-K1 CXCR7 b-arrestin cells are detached from culture dishes with a cell dissociation buffer (Invitrogen, #13151-014) and collected in growing medium (F12HAMS 90% (v/v)/FCS 10% (v/v), Penicilin/streptomycin 1% (v/v)). 5000 cells per well (in 20 μl) are seeded in a 384 well plate (white-walled, clear bottom; BD Falcon #353274). The plate is incubated at 37° C./5% CO2 for 24 hours. Medium is then replaced by […] (Invitrogen #31985) for 3 to 4 hours. Test compounds are dissolved at 10 mM in DMSO and serially diluted in DMSO to 200× of the final concentration for dose response curves. Compounds are then diluted 1:33.3 in HBSS1X. 5 μl/well of HBSS1X/20 mM HEPES/0.2% BSA are added to the assay plate followed by addition of 5 μl/well of diluted compounds. CXCL12 (Peprotech #300-28A) may be used as a reference agonist. The plate is incubated for 90 minutes at 37° C. 12 μl of detection reagent (Path Hunter Detection Kit, DiscoveRx, #93-0001) is transferred to the assay plate and to the plate is incubated for 1 hour at room temperature. Luminescent signal is read in a microplate reader (FLUOstar Optima, bmg). The calculated EC50 values may fluctuate depending on the daily cellular assay performance. Fluctuations of this kind are known to those skilled in the art.

T1 sequence (P25106 whole entry): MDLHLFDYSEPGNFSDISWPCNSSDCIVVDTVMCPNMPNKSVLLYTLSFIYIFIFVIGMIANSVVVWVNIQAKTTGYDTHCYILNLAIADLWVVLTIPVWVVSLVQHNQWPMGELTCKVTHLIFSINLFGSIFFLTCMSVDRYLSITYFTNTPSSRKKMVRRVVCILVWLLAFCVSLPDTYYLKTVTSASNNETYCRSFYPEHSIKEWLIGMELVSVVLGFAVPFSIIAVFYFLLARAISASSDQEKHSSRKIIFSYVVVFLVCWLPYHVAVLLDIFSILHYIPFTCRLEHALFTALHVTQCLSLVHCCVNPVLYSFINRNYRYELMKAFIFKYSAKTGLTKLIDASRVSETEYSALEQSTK

| Structure (SMILES) | EC50 |
| --- | --- |
| O=C(Nc1cccc(CN2CCC(C(=O)NC3CCCC3)CC2)c1)c1ccc(F)c[n+]1[O-] [Example 4.006, 5-Fluoro-1-oxy-pyridine-2-carboxylic acid [3-(4-cyclopentylcarbamoyl-piperidin-1-ylmethyl)-phenyl]-amide] | 1 nM |
| COc1cncc(C(=O)Nc2cccc(CN3CCC(C(=O)N(C)CC(C)C)CC3)c2)c1 [Example 4.015, N-{3-[4-(Isobutyl-methyl-carbamoyl)-piperidin-1-ylmethyl]-phenyl}-5-methoxy-nicotinamide] | 19 nM |
| COCC(C)NC(=O)C1CCN(Cc2cccc(NC(=O)c3cccc(C(F)(F)F)n3)c2)CC1 (stereo not shown) [Example 2.092] | 3 nM |
| O=C(Nc1cccc(CN2CCC(C(=O)NC3CCCCC3)CC2)c1)c1cccc(C(F)(F)F)n1 [Example 1.002, 6-Trifluoromethyl-pyridine-2-carboxylic acid [3-(4-cyclohexylcarbamoyl-piperidin-1-ylmethyl)-phenyl]-amide] | 1 nM |
| Cc1cncc(C(=O)Nc2cccc(CN3CCC(C(=O)NC(C)C)CC3)c2)c1 [Example 2.038] | 12 nM |
| CC(C)(C)NC(=O)C1CCN(Cc2csc(NC(=O)Cc3ccccc3Cl)c2)CC1 [Example 3.010, 1-{5-[2-(2-Chloro-phenyl)-acetylamino]-thiophen-3-ylmethyl}-piperidine-4-carboxylic acid tert-butylamide] | 41 nM |
| O=C(Nc1cccc(CN2CCC(C(=O)NC3CC3)CC2)c1)c1ccc(Cl)cc1 [Example 2.006] | 2 nM |
| O=C(Nc1cccc(CN2CCC(C(=O)NC3(CO)CCCC3)CC2)c1)c1ccc(Cl)cc1 [Example 2.032] | 5 nM |
| O=C(Nc1cccc(CN2CCC(C(=O)NC3CCCCC3)CC2)c1)c1ccc(Cl)cc1 [Example 1.001, 1-[3-(4-Chloro-benzoylamino)-benzyl]-piperidine-4-carboxylic acid cyclohexylamide] | 2 nM |
| Cc1cncc(C(=O)Nc2ccc(F)c(CN3CCC(C(=O)NC4CCCCC4)CC3)c2)c1 [Example 4.018, N-[3-(4-Cyclohexylcarbamoyl-piperidin-1-ylmethyl)-4-fluoro-phenyl]-5-methyl-nicotinamide] | 11 nM |
| CC(C)(C)NC(=O)C1CCN(Cc2cc(NC(=O)c3cccc(C(F)(F)F)n3)ncn2)CC1 [Example 5.001, 6-Trifluoromethyl-pyridine-2-carboxylic acid [6-(4-tert-butylcarbamoyl-piperidin-1-ylmethyl)-pyrimidin-4-yl]-amide] | 29 nM |
| Cc1cncc(C(=O)Nc2cccc(CN3CCC(F)(C(=O)NC(C)(C)C)CC3)c2)c1 [Example 4.002, N-[3-(4-tert-Butylcarbamoyl-4-fluoro-piperidin-1-ylmethyl)-phenyl]-5-methyl-nicotinamide] | 16 nM |
| O=C(Nc1cccc(CN2CCC(C(=O)NCc3cccnc3)CC2)c1)c1ccc(Cl)cc1 [Example 2.023] | 162 nM |
| COc1cccc(CNC(=O)C2CCN(Cc3cccc(NC(=O)c4ccc(Cl)cc4)c3)CC2)c1 [Example 2.028] | 394 nM |
| COc1cncc(C(=O)Nc2cccc(CN3CCC(C(=O)NC4CCCC4)CC3)c2)c1 [Example 4.013, N-[3-(4-Cyclopentylcarbamoyl-piperidin-1-ylmethyl)-phenyl]-5-methoxy-nicotinamide] | 9 nM |
| O=C(Nc1cccc(CN2CCC(C(=O)NC3CCCCC3)CC2)n1)c1ccc(F)cc1 [Example 3.003, 1-[6-(4-Fluoro-benzoylamino)-pyridin-2-ylmethyl]-piperidine-4-carboxylic acid cyclohexylamide] | 167 nM |
| O=C(Nc1cccc(CN2CCC(C(=O)NCc3ccccc3Cl)CC2)c1)c1ccc(Cl)cc1 [Example 2.025] | 17 nM |
| O=C(Nc1cc(CN2CCC(C(=O)NC3CCCCC3)CC2)ccn1)c1ccc(Cl)cc1 [Example 3.002, 1-[2-(4-Chloro-benzoylamino)-pyridin-4-ylmethyl]-piperidine-4-carboxylic acid cyclohexylamide] | 57 nM |
| O=C(Nc1cccc(CN2CCC(C(=O)NCc3ccc(Cl)cc3)CC2)c1)c1ccc(Cl)cc1 [Example 2.029] | 433 nM |
